Source: patent EP4700023A1, “GLP-1R RECEPTOR AGONIST COMPOUND SALT AND CRYSTAL FORM THEREOF, PREPARATION METHOD THEREFOR AND USE THEREOF” (Chengdu Vincentage Pharma Co., Ltd., priority 2023, dated 2024)

Key:
[1] = Hygroscopicity test method (DVS); type: physicochemical; conditions: 80% RH, 25°C, DVS
Method: Hygroscopicity test method (DVS): The hygroscopicity of the sample was measured using SMS Intrinsic Plus. The sample was weighed into a sample pan, equilibrated at 25°C until dm/dt was less than 0.002%, and then measured in time mode. The humidity was adjusted from 60%-90%-0%-90%-0% RH, with increments of 10% RH per step, and each humidity level was maintained for 1 hour.

[2] = Grindability test (mortar, XRPD detection); type: physicochemical
Method: Grindability test: An appropriate amount of the crystal compound to be tested was placed in a mortar and ground for 2 min and 5 min, followed by XRPD detection.

[3] = Compressibility test (tableting, XRPD detection); type: physicochemical; conditions: compressed into tablets
Solubility test = type: physicochemical; conditions: thermodynamic from solid, water, 37°C, HPLC
Method: Approximately 10 mg of the crystal compound was weighed and added to 3 mL of water, shaken, and maintained at 37°C.

[4] = Pharmacokinetic evaluation in rats; type: in vivo; conditions: plasma; Rat PK, oral (PO), 10 mg/kg
Method: Rats were used as test animals, and the plasma drug concentrations at different time points after gavage administration of the test sample were measured. The pharmacokinetic behavior of the compound of the present disclosure in rats was studied to evaluate its metabolic characteristics. For each experimental group, 3 rats with similar body weights were selected and orally administered a single dose of 10 mg/kg. […] Pharmacokinetic parameter calculations were performed using metabolic kinetic data analysis software WinNonlin 7.0 by non-compartmental analysis (NCA) based on plasma concentration data.
A test sample with a final preparation concentration (based on the content of the compound of formula I) of 1.0 mg/mL was prepared for oral administration, using a 0.5% CMC Na aqueous solution as the preparation solvent.
Administration: After overnight fasting (12 hours), rats were administered by gavage at a dose of 10 mg/kg.
The blood samples were placed in heparinized sample tubes, and centrifuged at 4°C and 3500 rpm for 10 minutes to separate plasma, which was then stored at -20°C. Food was provided 2 hours after administration.
Determination of the content of the compound to be tested in rat plasma after gavage administration: After thawing plasma samples at room temperature, 300 µL of internal standard (terfenadine 200 ng/mL, acetonitrile) was added to each sample. The mixtures were vortexed for 1 min and then centrifuged at 4°C and 15400 rpm for 10 min. The supernatant was diluted 20-fold with 80% acetonitrile-water and then injected for LC/MS/MS analysis.

[5] = Purity test after storage in an oven at set temperature (stability); type: physicochemical; conditions: 80 °C for 30 days (footnote c)
[6] = as above; type: physicochemical
Method: Purity test: The sample to be tested was dissolved in a methanol solution, and the sample purity was measured by HPLC.

[7] = Comparison of crystal forms of the salt (behaviour during preparation); conditions: during the preparation process

SMILES	Hygroscopicity (80% RH) [1] [%]	Hygroscopicity (80% RH), description in words [1] [% RH linear reversible]	Grindability (mortar 5 min), purity change [2] [%]	Grindability (mortar 5 min), solid form ([2]; XRPD)	Compressibility (20 Mp) [3]	solubility at 24 h (Solubility test) [µg/mL]	AUC(0-inf) [4] [ng·h/mL]	AUC(0-t) [4] [ng·h/mL]	Cmax [4] [ng/mL]	Tmax [4] [min]	half-life [4] [min]	Solid form after 80°C (result after 30 days) [5]	Purity, 2 to 8°C (6 months) ([6]; 2 to 8°C, 6 months, HPLC) [%]	Purity, Onset ([6]; Onset (before storage), HPLC) [%]	Thermal stability ([6]; conclusion from Table 13, degrades under heating or room temperature)	Purity, 60°C (7 day) ([6]; oven, 60°C, 7 day, HPLC) [%]	Purity, 80°C (result after 30 days) ([6]; oven, 80 °C for 30 days (footnote c), HPLC) [%]	Crystal form stability during preparation [7]
O=C(O)c1ccc2nc(CN3CCC(c4ccccc4OCc4ccc(Cl)cc4F)CC3)n(C[C@@H]3CCO3)c2c1 [Compound of formula I]	0.25	10 to 90	6.5	Amorphous	Significant reduction in crystallinity, amorphization	< 1	401	396	154	40	65.4	amorphous	82.49	99.15	poor thermal stability	99.15	70.18	–
C1COCCO1.NC(CO)(CO)CO.O=C(O)c1ccc2nc(CN3CCC(c4ccccc4OCc4ccc(Cl)cc4F)CC3)n(CC3CCO3)c2c1 [Crystal form B of the 1,4-dioxane solvate of the 2-amino-2-(hydroxymethyl)-1,3-propanediol salt of (S)-2-((4-(2-((4-chloro-2-fluorobenzyl)oxy)phenyl)piperidin-1-yl)methyl)-1-(oxetan-2-aminomethyl)-1H-benzo[d]imidazole-6-carboxylate]	–	–	–	–	–	–	–	–	–	–	–	–	–	–	–	–	–	unstable, prone to crystal form transformation during preparation
